# Results published in patent publication US10143686B2, “Oxidosqualene cyclase as a protein target for anticancer therapeutics” (The Curators of the University of Missouri, priority 2010, dated 2018).
# Tests used:
# OSC = biological target: T1, OSC (Homo sapiens, UniProt P48449); settings: value in parentheses not explained in the patent; cited from earlier work
# T1 sequence (P48449 1-732): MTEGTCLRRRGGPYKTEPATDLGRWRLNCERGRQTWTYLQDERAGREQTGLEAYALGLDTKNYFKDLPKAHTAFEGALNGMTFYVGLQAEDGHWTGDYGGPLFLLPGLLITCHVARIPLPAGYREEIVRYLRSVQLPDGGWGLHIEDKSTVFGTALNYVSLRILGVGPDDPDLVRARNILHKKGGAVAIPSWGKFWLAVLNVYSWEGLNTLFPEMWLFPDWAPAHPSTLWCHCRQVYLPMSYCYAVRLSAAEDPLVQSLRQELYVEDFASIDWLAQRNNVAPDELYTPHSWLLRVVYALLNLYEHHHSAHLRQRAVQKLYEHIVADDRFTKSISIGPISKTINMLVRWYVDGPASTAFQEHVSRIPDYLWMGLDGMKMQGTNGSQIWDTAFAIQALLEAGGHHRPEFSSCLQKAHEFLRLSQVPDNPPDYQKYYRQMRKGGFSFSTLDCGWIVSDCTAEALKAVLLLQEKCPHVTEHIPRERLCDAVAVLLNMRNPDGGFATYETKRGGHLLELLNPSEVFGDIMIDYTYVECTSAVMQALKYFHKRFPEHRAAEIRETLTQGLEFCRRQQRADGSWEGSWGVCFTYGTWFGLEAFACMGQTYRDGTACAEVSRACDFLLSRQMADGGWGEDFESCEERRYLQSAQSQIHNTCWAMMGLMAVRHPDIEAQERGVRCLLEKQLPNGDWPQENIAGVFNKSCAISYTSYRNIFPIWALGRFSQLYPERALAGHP
# [1] = test system: BT-474 breast cancer cells; assay: SRB cell viability assay, BT-474; type: cell-based, human; settings: BT-474, 24 hours, dose-dependent, FIG. 2A
# Method: (§1) The sulforhodamine B (SRB) assay was employed to evaluate the effect of OSC inhibitor Ro 48-8071 on viability of breast cancer and normal mammary gland cells with slight modification of the original procedure established at NCI. Accordingly, the cells were seeded in 96-well plates in 100 μl culture medium and incubated overnight at 37° C. with 5% CO2. […] The surviving or adherent cells were fixed in situ by withdrawing the growth medium and adding 100 μl of PBS and 100 μl of 50% cold trichloroacetic acid and then incubating at 4° C. for 1 h. The surviving cells were washed with ice-water, dried at room temperature (RT), and then stained with 50 μl 4% SRB for 8 min at RT. Unbound dye was removed by washing 5 times with cold 1% acetic acid, and the plates were dried at RT. Bound stain was solubilized with 150 μl 10 mM Tris buffer, and absorbance of samples were measured at 520 nm with a SpecTRA MAX 190 microplate reader (Sunnyvale, Calif.). In these experiments on BT-474, T47-D, and AG11132A cell lines, six wells were used for each concentration, and each experiment was performed at least twice.
# (§2) The effect of OSC inhibition was evaluated in additional cancer cell lines as well. Cancer cell lines may be purchased from ATCC (Manassas, Va.). The SRB assay has been employed for determination of the inhibitory effects of RO 48-8071 on growth of different cancer cells. Cells were seeded into 96-well plates and incubated overnight at 37° C. with 5% CO2. The culture medium was removed after 24 hours, and cells were washed with DMEM/F12 medium and then treated with various concentrations of RO 48-8071 in 5% FBS culture medium for 24 and 48 hours. Surviving or adherent cells were fixed in situ by withdrawing the growth medium, adding 100 μl PBS and 100 μl 50% trichloroacetic acid and then incubating at 4° C. for one hour. Cells were washed with ice-cold water, dried at room temperature (RT), and then stained with 50 μl 4% SRB for eight minutes at RT. Unbound dye was removed by washing with cold 1% acetic acid for five times, and plates were dried at RT. Bound stain was solubilized with 150 μl 10 mM Tris buffer and absorbance of samples was read at 520 nm with a SpecTRA MAX 190 microplate reader (Molecular Devices, Sunnyvale, Calif.). Six wells were used for each concentration, and each experiment was performed two to three times.
# Effect of RO 48-8071 on breast cancer cell line BT-474 viability. […] The culture mediums employed 10% FBS DMEM/F12 for culture and 5% FBS DMEM/F12 for treatment.
# [2] = test system: T47-D breast cancer cells; assay: SRB cell viability assay, T47-D; type: cell-based; settings: 24 hours, dose-dependent, FIG. 2B
# Method: as §1, §2
# Effect of RO 48-8071 on breast cancer cell line T47-D viability. […] The culture mediums employed 10% FBS DMEM/F12 for culture and 5% FBS DMEM/F12 for treatment.
Compound,IC50 (OSC) [nM],effect on cell viability (SRB) [1],effect on cell viability (SRB) [2]
CN(CCCCOc1ccc(C(=O)c2ccc(Br)cc2)cc1)C1CC1,19,–,–
C=CCC(C)CCCCCCOc1ccc2c(-c3ccc(Br)cc3)nn(C)c2c1 (stereo not shown),19.6,–,–
O=C(c1ccc(Cl)cc1)N1CCC(Cc2ccc(C3=NCCO3)cc2)CC1,36,–,–
"O=C1C2CCN(CC2)C1(CO)CO [PRIMA-1, 2,2-bis(hydroxymethyl)-3-quinuclidinone]",–,significantly inhibit the viability,significantly inhibit the viability
"CCN(CC)CCO[C@H]1CC[C@@]2(C)C(=CC[C@@H]3[C@@H]2CC[C@]2(C)C(=O)CC[C@@H]32)C1 [U18666A, 3-beta-(2-(diethylamino)ethoxy)androst-5-en-17-one]",–,significantly inhibit the viability,significantly inhibit the viability
